Laboratory results as given in patent US6916905B2, “Dmt-Tic di-and tri-peptidic derivatives and related compositions and methods of use” (The United States of America as represented by the …, priority 2000, dated 2005).
“Also recorded” adds a separate entry of the source. Read-outs that look alike come from different tables or passages of the source. Non-standard residues stand in square brackets, D forms with d. Residues, ends and D or L forms follow the SMILES beside them. ξ: configuration not given here. Dmt = Cc1cc(O)cc(C)c1C[C@H](N)C(=O)O; ξDmt = Cc1cc(O)cc(C)c1CC(N)C(=O)O; Tic = O=C(O)[C@@H]1Cc2ccccc2CN1

Key:
δ-opioid receptors [1] = molecular target: T1, δ-opioid receptors (Rattus norvegicus, UniProt P33533); experiment: Rat brain synaptosome (P2) binding, agonist [3H]DPDPE (Example 47); details: for Agonist K1μ/Kiδ: selectivity, Kiδ from agonist radioligand [3H]DPDPE
T1 construct: assayed with a rat brain synaptosomal preparation (P2); from tissue; host or cells: rat brain P2 synaptosomes
Procedure: (§2) Briefly, the agonists [^3H]DPDPE (30-60 Ci/mmol, NEN-DuPont) and [^3H]DAGO (30-60 Ci/mmol, Amersham) were used to label δ and μ sites, respectively, under saturation binding conditions (2 hrs at 22° C.). Excess unlabeled peptide (2 μM) established non-specific binding levels and the labeled membranes were rapidly filtered on Whatman GF/C glass fibre filters, thoroughly washed, dried and measured for radioactivity using CytoScint (ICN, Irvine, Calif.). […] The affinity constants (Ki) were calculated according to Cheng and Prusoff (Biochem. Pharmacol. 22: 3099-3108 (1973)).

δ-opioid receptors [2] = molecular target: T1, δ-opioid receptors; experiment: Rat brain synaptosome (P2) binding, δ antagonist [3H]N,N(CH3)2-Dmt-Tic-OH (Example 47); details: for Ki: rat brain synaptosomes (P2), δ antagonist radioligand, mean ± SEM, n in parentheses, read-out: Kiδ(nM) [^3H]N,N(CH3)2-Dmt-Tic-OH; for Antagonist K1μ/Kiδ: selectivity, Kiδ from antagonist radioligand [3H]N,N(CH3)2-Dmt-Tic-OH
Procedure: as §2

μ-opioid receptors = molecular target: T2, μ-opioid receptors (Rattus norvegicus, UniProt P33535); experiment: Rat brain synaptosome (P2) binding, [3H]DAGO (Example 47); details: rat brain synaptosomes (P2); mean ± SEM, n in parentheses; read-out: Kiμ (nM) [^3H]DAGO
T2 construct: assayed with a rat brain synaptosomal preparation (P2); from tissue; host or cells: rat brain P2 synaptosomes

δ receptors = δ receptors (Mus musculus, UniProt P32300)
Procedure: (§1) The functional bioactivity of the present inventive compounds was assessed using standard functional bioassays of δ and μ activity in MVD and GPI (Salvadori et al. (1995), supra; and Salvadori et al., J. Med. Chem. 36: 3748-3756 (1993)). […] Dose-response curves were obtained (Salvadori et al. (1995), supra) for both tissues. […] Data were derived from at least four independent tissue samples and dose-response curves from which the pA2 values were determined (Salvadori et al. (1997), supra) according to Arunlakshana and Schild (Br. J. Pharmacol. 14: 48-58 (1959)).

μ receptors = μ receptors (Cavia porcellus, UniProt P97266); experiment: Guinea pig ileum (GPI) functional bioassay (Example 48)
Procedure: as §1

hMDR-1 = hMDR-1 (Homo sapiens, UniProt P08183); experiment: Calcein AM assay for Pgp in hMDR-1 transfected G-185 fibroblasts (Example 49); details: calcein fluorescence
Procedure: Stably transfected G-185 fibroblasts containing hMDR-1 and NIH 3T3 cell lines were grown to confluent monolayers in DMEM containing 4.5 g glucose/1, 10% fetal calf serum, L-glutamine, penicillin (50 units/ml), streptomycin (50 μg/ml) and 1 mM sodium pyruvate in 5% CO2 at 37° C. G-185 cells were maintained in […] colchicine.
The assay for Pgp is based on the diffusion of non-fluorescent calcein AM across the cell membrane. Calcein AM is then hydrolyzed and accumulates as the fluorescent calcein. In transfected cells expressing excess hMDR-1, Pgp extrudes calcein AM from the cell before hydrolysis occurs; inhibition of hMDR-1 results in the accumulation of intracellular calcein. Transfected G-185 cells and the NIH 3T3 cells were analyzed in triplicate using seven graded dosages of verapamil or the opioid peptides in 96-well plates. Cells (2.5×10^6/well) were incubated in 100 μl culture medium for 15 min at 37° C. and 50 μl of 1 μM calcein AM in PBS, plus 50 μl of verapamil or one of the present inventive compounds in PBS, or 100 μl of PBS alone (control) were added. Cells were mixed and incubated for 15 min at 37° C., then centrifuged for 5 min at 2,000×g, and then washed three times in 200 μl PBS. Cell pellets were resuspended in 200 μl PBS and transferred to white Microfluor Plates (Nunc, Copenhagen, Denmark) in order to measure calcein-specific fluorescence (494 nm absorption; 517 nm emission). Internal controls were carried out with each experiment using verapamil and PBS in order to compare the consistency between cell preparations. Means±SE (error bars) were determined and plotted using Prism™ (GraphPad, San Diego, Calif.).

[3] = rat brain synaptosomes (P2), mean ± SEM, n in parentheses, read-out: Kiδ(nM) [^3H]DPDPE

Sequence of hMDR-1 (P08183 whole entry): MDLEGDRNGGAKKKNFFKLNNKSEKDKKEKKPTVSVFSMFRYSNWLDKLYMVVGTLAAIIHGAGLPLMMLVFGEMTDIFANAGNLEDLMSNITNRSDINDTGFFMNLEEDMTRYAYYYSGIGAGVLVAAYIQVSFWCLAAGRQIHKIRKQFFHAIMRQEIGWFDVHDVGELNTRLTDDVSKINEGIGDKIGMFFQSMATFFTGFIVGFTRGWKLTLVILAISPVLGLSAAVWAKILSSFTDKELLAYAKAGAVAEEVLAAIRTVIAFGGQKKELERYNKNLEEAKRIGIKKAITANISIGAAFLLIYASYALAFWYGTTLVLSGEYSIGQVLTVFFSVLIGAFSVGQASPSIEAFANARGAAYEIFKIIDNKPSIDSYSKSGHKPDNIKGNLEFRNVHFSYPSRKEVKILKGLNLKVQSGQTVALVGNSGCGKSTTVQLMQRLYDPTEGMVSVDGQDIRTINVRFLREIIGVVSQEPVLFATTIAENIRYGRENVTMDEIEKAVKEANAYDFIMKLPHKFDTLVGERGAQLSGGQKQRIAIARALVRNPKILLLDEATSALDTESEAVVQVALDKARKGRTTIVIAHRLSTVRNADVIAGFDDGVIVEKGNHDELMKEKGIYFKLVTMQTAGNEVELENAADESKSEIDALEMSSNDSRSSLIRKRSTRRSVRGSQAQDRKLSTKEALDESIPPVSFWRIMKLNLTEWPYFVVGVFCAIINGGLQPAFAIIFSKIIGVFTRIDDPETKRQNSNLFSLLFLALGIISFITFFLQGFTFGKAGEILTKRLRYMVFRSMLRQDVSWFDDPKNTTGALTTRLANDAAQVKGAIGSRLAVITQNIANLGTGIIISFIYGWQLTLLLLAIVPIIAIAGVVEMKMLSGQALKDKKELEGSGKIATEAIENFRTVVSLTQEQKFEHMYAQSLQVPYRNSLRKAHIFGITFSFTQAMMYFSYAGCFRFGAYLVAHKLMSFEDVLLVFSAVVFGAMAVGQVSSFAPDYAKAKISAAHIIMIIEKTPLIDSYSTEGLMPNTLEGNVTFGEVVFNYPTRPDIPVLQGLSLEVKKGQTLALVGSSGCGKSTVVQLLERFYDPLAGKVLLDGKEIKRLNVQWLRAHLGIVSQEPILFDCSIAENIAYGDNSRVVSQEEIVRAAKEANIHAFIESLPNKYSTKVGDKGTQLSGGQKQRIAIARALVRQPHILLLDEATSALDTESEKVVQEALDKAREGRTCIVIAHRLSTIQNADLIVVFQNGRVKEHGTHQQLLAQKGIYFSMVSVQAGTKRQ
T2 sequence (P33535 whole entry): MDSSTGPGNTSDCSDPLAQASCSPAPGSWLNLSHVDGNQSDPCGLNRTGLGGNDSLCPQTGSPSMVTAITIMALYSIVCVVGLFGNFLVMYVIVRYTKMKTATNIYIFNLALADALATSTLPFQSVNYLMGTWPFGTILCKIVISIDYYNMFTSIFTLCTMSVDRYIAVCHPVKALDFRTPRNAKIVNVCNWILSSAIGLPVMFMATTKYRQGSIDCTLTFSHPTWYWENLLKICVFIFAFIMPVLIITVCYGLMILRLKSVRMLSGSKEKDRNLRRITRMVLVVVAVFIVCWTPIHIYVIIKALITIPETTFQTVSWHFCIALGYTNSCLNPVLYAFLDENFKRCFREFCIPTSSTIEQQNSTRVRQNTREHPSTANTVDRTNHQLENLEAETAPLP
Sequence of μ receptors (P97266 whole entry, looked up): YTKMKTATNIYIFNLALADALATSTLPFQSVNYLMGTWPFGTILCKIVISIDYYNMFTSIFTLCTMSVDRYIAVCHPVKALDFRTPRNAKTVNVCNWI
Sequence of δ receptors (P32300 whole entry): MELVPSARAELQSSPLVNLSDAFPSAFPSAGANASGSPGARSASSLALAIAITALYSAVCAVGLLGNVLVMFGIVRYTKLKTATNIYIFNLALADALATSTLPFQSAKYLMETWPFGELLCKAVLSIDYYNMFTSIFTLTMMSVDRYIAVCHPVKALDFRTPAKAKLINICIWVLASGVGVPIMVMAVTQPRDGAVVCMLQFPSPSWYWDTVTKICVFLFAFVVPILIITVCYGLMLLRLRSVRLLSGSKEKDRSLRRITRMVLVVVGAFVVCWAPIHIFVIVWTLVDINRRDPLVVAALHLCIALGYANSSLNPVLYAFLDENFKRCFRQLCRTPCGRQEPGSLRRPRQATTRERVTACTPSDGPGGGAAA
T1 sequence (P33533 whole entry): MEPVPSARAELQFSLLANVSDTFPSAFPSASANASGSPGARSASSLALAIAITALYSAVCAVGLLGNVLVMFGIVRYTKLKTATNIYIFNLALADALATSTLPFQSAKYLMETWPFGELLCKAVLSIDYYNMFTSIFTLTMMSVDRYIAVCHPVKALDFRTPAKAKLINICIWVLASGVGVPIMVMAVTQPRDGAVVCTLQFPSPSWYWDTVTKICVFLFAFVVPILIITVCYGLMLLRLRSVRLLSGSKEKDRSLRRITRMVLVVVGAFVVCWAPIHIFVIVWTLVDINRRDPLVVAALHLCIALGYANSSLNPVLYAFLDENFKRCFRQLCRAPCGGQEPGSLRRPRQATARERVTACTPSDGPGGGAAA

With `CCN(CC)[C@@H](Cc1c(C)cc(O)cc1C)C(=O)N1Cc2ccccc2C[C@H]1C(=O)O` [Compound 17, N,N(Et)2-DMT-Tic-OH] the Ki (δ-opioid receptors [1]) was 0.92 ± 0.19 nM and the “Agonist K1μ/Kiδ” value (δ-opioid receptors [1]) was 35.3 ± 1.96 (3-5).
For `CNC(=O)[C@H](C)NC(=O)[C@@H]1Cc2ccccc2CN1C(=O)[C@@H](N)Cc1c(C)cc(O)cc1C` [Compound 18, H-Dmt-Tic-Ala-NHMe] (H-[Dmt]-[Tic]-Ala-NHMe), the Ki (δ-opioid receptors [1]; [3]) was 0.058 ± 0.01 nM, the “Agonist K1μ/Kiδ” value (δ-opioid receptors [1]) was 100 and the Ki (δ-opioid receptors [2]) was 0.12 ± 0.04 nM. The “Antagonist K1μ/Kiδ” value (δ-opioid receptors [2]) was 47, the Ki (μ-opioid receptors) was 5.75 ± 0.72 nM and the EC50 (δ receptors) was 1290 nM. For the same molecule, the “bioactivity on MVD (δ), in words” value (δ receptors) was “very weak δ and μ agonism”, the EC50 (μ receptors) was 290 nM and the “bioactivity on GPI (μ), in words” value (μ receptors) was “very weak δ and μ agonism”.
For `COC(=O)[C@H](C)NC(=O)[C@@H]1Cc2ccccc2CN1C(=O)[C@@H](N)Cc1c(C)cc(O)cc1C` [Compound 19, H-Dmt-Tic-Ala-OMe] (H-[Dmt]-[Tic]-Ala-OMe), the Ki (δ-opioid receptors [1]; [3]) was 0.23 ± 0.09 nM, the “Agonist K1μ/Kiδ” value (δ-opioid receptors [1]) was 48 and the Ki (δ-opioid receptors [2]) was 0.14 ± 0.04 nM. For the same molecule, the “Antagonist K1μ/Kiδ” value (δ-opioid receptors [2]) was 83 and the Ki (μ-opioid receptors) was 11.3 ± 1.87 nM.
For `C[C@@H](NC(=O)[C@@H](N)Cc1ccc(O)cc1)C(=O)NCC(=O)N(C)[C@@H](Cc1ccccc1)C(=O)NCCO` [DAGO, H-Tyr-D-Ala-Gly-N-MePhe-Gly-ol], the “inhibition of hMDR-1 (Pgp), in words” value (hMDR-1) was “inactive; also recorded: lack of inhibition”.
For `Cc1cc(O)cc(C[C@H](N)C(=O)N[C@H](Cc2ccccc2)C(=O)NCC(=O)N[C@H](C(=O)N[C@H](C(N)=O)C(C)C)C(C)C)c1C` [DPD, H-Dmt-D-Phe-Gly-Val-Val-NH2], the “inhibition of hMDR-1 (Pgp), in words” value (hMDR-1) was “inactive”.
With `CC1(C)SSC(C)(C)[C@@H](NC(=O)[C@@H](N)Cc2ccc(O)cc2)C(=O)NCC(=O)N[C@@H](Cc2ccccc2)C(=O)N[C@H]1C(=O)O` [DPDPE, H-Tyr-[D-Pen-Gly-Phe-D-Pen] enkephalin] the “inhibition of hMDR-1 (Pgp), in words” value (hMDR-1) was “inactive; also recorded: lack of inhibition”.
In the case of `Cc1cc(O)cc(C)c1CC(N)C(=O)N1Cc2ccccc2C[C@H]1C(=O)O` (stereo partly drawn) [H-(R,S)Dmt-Tic-OH, reference compound] (H-[ξDmt]-[Tic]-OH), the Ki (μ-opioid receptors) is reported as 1160 ± 327 nM, the Kb (δ receptors) is reported as 6.76 nM and the EC50 (μ receptors; μ agonism, read-out: GPI ED50) is reported as greater than 10000 nM.
With `C[C@@H](NC(=O)[C@@H](N)Cc1ccc(O)cc1)C(=O)N[C@@H](Cc1ccccc1)C(=O)N[C@@H](Cc1c[nH]c2ccccc12)C(=O)N[C@@H](Cc1ccc(O)cc1)C(=O)N1CCC[C@H]1C(=O)N[C@@H](CCCCN)C(=O)O` [[Trp^4,Lys-OH^7]DER, H-Tyr-D-Ala-Phe-Trp-Tyr-Pro-Lys-OH] (H-Y[dA]FWYPK-OH) the “inhibition of hMDR-1 (Pgp), in words” value (hMDR-1) was “inactive”.
In the case of `C[C@@H](NC(=O)[C@@H](N)Cc1ccc(O)cc1)C(=O)N[C@@H](Cc1ccccc1)C(=O)N[C@@H](Cc1c[nH]c2ccccc12)C(=O)N[C@@H](Cc1ccc(O)cc1)C(N)=O` [[Trp^4,Tyr^5]DER, H-Tyr-D-Ala-Phe-Trp-Tyr-NH2] (H-Y[dA]FWY-NH2), the “inhibition of hMDR-1 (Pgp), in words” value (hMDR-1) is reported as “inactive”.
In the case of `CC(C)[C@H](NC(=O)[C@H](CCC(=O)O)NC(=O)[C@H](Cc1ccccc1)NC(=O)[C@@H](C)NC(=O)[C@@H](N)Cc1ccc(O)cc1)C(=O)N[C@H](C(=O)NCC(N)=O)C(C)C` [deltorphin B, H-Tyr-D-Ala-Phe-Glu-Val-Val-Gly-NH2], the “inhibition of hMDR-1 (Pgp), in words” value (hMDR-1) is reported as “inactive”.
For `Oc1ccc2c3c1O[C@H]1c4[nH]c5ccccc5c4C[C@@]4(O)[C@@H](C2)N(CC2CC2)CC[C@]314` [naltrindole], the “inhibition of hMDR-1 (Pgp), in words” value (hMDR-1) was “inhibition that dissipated at high concentrations”.
